Measured values reported in article PMC6968685 (Journal of Enzyme Inhibition and Medicinal Chemistry, 2020).

How the values were obtained:
[1] = test system: L. donovani (MHOM/IN/00/DEVI) promastigotes; assay: In vitro antileishmanial activity, MTT assay on promastigotes; format: cell-based; conditions: Leishmania donovani, 72 h incubation, ≥10 = no activity noted at the highest concentration tested
Method: L. donovani (MHOM/IN/00/DEVI) used in this study was provided by the CNR Leishmania (Montpellier, France). The effects of the tested compounds on the growth of L. donovani (MHOM/IN/00/DEVI) promastigotes were assessed by MTT assay. Briefly, promastigotes in log-phase in Schneider’s medium supplemented with 20% foetal calf serum (FCS), 2 mM L-glutamine and antibiotics (100 U/ml penicillin and 100 µg/ml streptomycin), were incubated at an average density of 10^6 parasites/ml in sterile 96-well plates with various concentrations of compounds dissolved in DMSO (final concentration less than 0.5% v/v), in duplicate. Appropriate controls treated with DMSO and amphotericin B (reference drug purchased from Sigma-Aldrich) were added to each set of experiments. After 72 h incubation period at 27 °C, parasite metabolic activity was determined. Each well was microscopically examined for precipitate formation. To each well was added 20 µl of 5 mg/ml MTT [3–(4,5-dimethylthiazol-2-yl)-2,5-diphenyltetrazolium bromide)] solution followed by 4 h incubation time. The enzyme reaction was stopped by addition of 100 µl of 50% isopropanol/10% sodium dodecyl sulfate. Plates were vigorously shaken (300 rpm) for 10 min, and the absorbance was measured at 570 nm in a BIO-TEK ELx808 Absorbance Microplate Reader. […] IC50 of the parasite’s growth (half maximal inhibitory concentration or IC50 values) were then calculated from the obtained experimental results using a previously described regression programme.

[2] = test system: T. brucei brucei AnTat 1.9; assay: In vitro antitrypanosomal activity, Alamar Blue assay; format: cell-based; conditions: for Selectivity index HepG2/Tryp.: SI = CC50 HepG2 / IC50 Trypanosoma brucei brucei; for IC50: Trypanosoma brucei, slender bloodstream trypomastigotes, AnTat 1.9 strain, read-out: Trypanosoma brucei brucei IC50 values, Trypanos Antat 1.9
Method: The effects of the tested compounds on the growth of T. brucei brucei were assessed using an Alamar Blue® assay described by Räz et al.[49] T. brucei brucei AnTat 1.9 (IMTA, Antwerpen, Belgium) was cultured in MEM with Earle’s salts, supplemented according to the protocol of Baltz et al.[50] with the following modifications: 0.5 mM mercaptoethanol (Sigma Aldrich), 1.5 mM L-cysteine (Sigma Aldrich), 0.05 mM bathocuproine sulphate (Sigma Aldrich), and 20% heat-inactivated horse serum (Gibco, France) at 37 °C and 5% CO2. Samples were incubated at an average density of 2000 parasites/well in sterile 96-wells plates (Fisher, France) with various concentrations of compounds dissolved in 0.9% NaCl. All doses were tested in duplicate. Appropriate controls treated with solvents 0.9% NaCl or DMSO or with suramin, pentamidine, eflornithine, and fexinidazole (reference drugs purchased from Sigma Aldrich and Fluorochem, UK) were added to each set of experiments. After 69 h incubation period at 37 °C, 10 µl of the viability marker Alamar Blue (Fisher) was added to each well, and the plates were incubated for 5 h. The plates were read in a PerkinElmer ENSPIRE (Germany) microplate reader using an excitation wavelength of 530 nm and an emission wavelength of 590 nm. […] IC50 values were calculated using a nonlinear regression analysis of dose-response curves performed using GraphPad Prism software (La Jolla, CA). IC50 values were calculated from three independent experiments.

[3] = test system: P. falciparum CQ-resistant strain W2; assay: In vitro antiplasmodial activity, SYBR Green I fluorescence-based method, strain W2; format: cell-based; conditions: for IC50: Plasmodium falciparum, chloroquine-resistant strain W2, 48 h incubation, read-out: P. falciparum strains IC50 values, W2; for Selectivity index HepG2/W2: SI = CC50 HepG2 / IC50 P. falciparum W2
Method: (§1) The in vitro antiplasmodial activities were tested over concentrations ranging from […] against culture-adapted P. falciparum reference strains 3D7 and W2. […] The parasites were cultivated in RPMI medium (Sigma-Aldrich, Lyon, France) supplemented with 0.5% Albumax I (Life Technologies Corporation, Paisley, UK), hypoxanthine (Sigma-Aldrich), and gentamicin (Sigma-Aldrich) with human erythrocytes and were incubated at 37 °C in a candle jar, as described previously[43] .The P. falciparum drug susceptibility test was carried out in 96-well flat-bottom sterile plates in a final volume of 250 µl. After 48 h incubation period with the drugs, quantities of DNA in treated and control cultures of parasites in human erythrocytes were quantified using the SYBR Green I (Sigma-Aldrich) fluorescence-based method[44]^,[45]. Briefly, after incubation, plates were frozen at −20 °C until use. Plates were then thawed for 2 h at room temperature, and 100 µl of each homogenised culture was transferred to a well of a 96-well flat-bottom sterile black plate (Nunc, Inc., Rochester, NY) that contained 100 µl of the SYBR Green I lysis buffer (2xSYBR Green, 20 mM Tris base pH 7.5, 5 mM EDTA, 0.008% w/v saponin, 0.08% w/v Triton X-100). […] Plates were incubated for 1 h at room temperature and then read on a fluorescence plate reader (Tecan, Grödig, Austria) using excitation and emission wavelengths of 485 and 535 nm, respectively. IC50 values were calculated by non-linear regression analysis of data from dose-response curves, using TableCurve 2D version 5.0 software (Systat Software, San Jose, CA). IC50 values are reported as means calculated from three independent experiments.

[4] = Cytotoxicity evaluation, MTT; format: cell-based, human; conditions: human
Method: These cells are a commonly used human hepatocarcinoma-derived cell line that has characteristics similar to those of primary hepatocytes. These cells express many hepatocyte-specific metabolic enzymes, thus enabling the cytotoxicity of tested product metabolites to be evaluated. […] Duplicate assays were performed for each sample. Each well was microscopically examined for precipitate formation before the medium was aspirated from the wells. After aspiration, 100 µl of MTT solution (0.5 mg/ml in medium without FCS) were then added to each well. […] The MTT solution was removed, and DMSO (100 µl) was added to dissolve the resulting blue formazan crystals. Plates were shaken vigorously (300 rpm) for 5 min. The absorbance was measured at 570 nm with 630 nm as reference wavelength in a BIO-TEK ELx808 Absorbance Microplate Reader. DMSO was used as blank and doxorubicin (Sigma Aldrich) as positive control. Cell viability was calculated as percentage of control (cells incubated without compound). The CC50 was determined from the dose-response curve using the TableCurve 2D version 5.0 software (Systat Software, San Jose, CA)

[5] = test system: P. falciparum CQ-sensitive strain 3D7; assay: In vitro antiplasmodial activity, SYBR Green I fluorescence-based method, strain 3D7; format: cell-based; conditions: for IC50: Plasmodium falciparum, chloroquine-sensitive strain 3D7, 48 h incubation, read-out: P. falciparum strains IC50 values, 3D7; for Selectivity index HepG2/3D7: SI = CC50 HepG2 / IC50 P. falciparum 3D7
Method: as §1

IC50 [1] | IC50 [2] | IC50 [3] | IC50 [5] | Compound | Selectivity index HepG2/Tryp. [2] | Selectivity index HepG2/W2 [3] | CC50 at 72 h [4] | Selectivity index HepG2/3D7 [5]
≥ 10 µM | 0.99 ± 0.122 µM | 5.96 ± 0.54 µM | 8.91 ± 0.87 µM | COc1ccc2c(-c3ccc(CNCCCCN4CCN(C)CC4)cc3)nc(-c3ccc(CNCCCCN4CCN(C)CC4)cc3)cc2c1 [Compound 2k, 6-Methoxy-1,3-bis{4-[(4–(4-methylpiperazin-1-yl)butyl)aminomethyl]phenyl}isoquinoline] | 6.54 | 1.09 | 6.48 ± 0.6 µM | 0.73
≥ 10 µM | 1 ± 0.261 µM | 7.61 ± 0.94 µM | 3.27 ± 0.31 µM | COc1ccc2cc(-c3ccc(CNCCCCN4CCN(C)CC4)cc3)nc(-c3ccc(CNCCCCN4CCN(C)CC4)cc3)c2c1 [Compound 2g, 7-Methoxy-1,3-bis{4-[(4–(4-methylpiperazin-1-yl)butyl)aminomethyl]phenyl}isoquinoline] | 10.16 | 1.33 | 10.2 ± 0.9 µM | 3.11
≥ 10 µM | 1.08 ± 0.068 µM | > 40 µM | 8.98 ± 0.36 µM | COc1ccc2c(-c3ccc(CNCCCCN(C)C)cc3)cc(-c3ccc(CNCCCCN(C)C)cc3)nc2c1 [Compound 1m, 7-Methoxy-2,4-bis{4-[(4-dimethylaminobutyl)aminomethyl]phenyl}quinoline] | 5.00 |  | 5.4 ± 0.3 µM | 0.60
≥ 10 µM | 1.12 ± 0.118 µM | 2.26 ± 0.48 µM | 2.41 ± 0.08 µM | COc1ccc2c(-c3ccc(CNCCCCN4CCN(C)CC4)cc3)cc(-c3ccc(CNCCCCN4CCN(C)CC4)cc3)nc2c1 [Compound 1o, 7-Methoxy-2,4-bis{4-[(4–(4-methylpiperazin-1-yl)butyl)aminomethyl]phenyl}quinoline] | 2.96 | 1.47 | 3.32 ± 0.5 µM | 1.38
≥ 10 µM | 1.01 ± 0.135 µM | 2.73 ± 0.76 µM | 4.34 ± 0.5 µM | COc1ccc2c(-c3ccc(CNCCCN4CCN(C)CC4)cc3)cc(-c3ccc(CNCCCN4CCN(C)CC4)cc3)nc2c1 [Compound 1p, 7-Methoxy-2,4-bis{4-[(3–(4-methylpiperazin-1-yl)propyl)aminomethyl]phenyl}quinoline] | 6.37 | 2.36 | 6.44 ± 0.6 µM | 1.48
≥ 10 µM | 0.59 ± 0.057 µM | 1.34 ± 0.29 µM | 1.81 ± 0.25 µM | COc1ccc2nc(-c3ccc(CNCCN4CCN(C)CC4)cc3)nc(-c3ccc(CNCCN4CCN(C)CC4)cc3)c2c1 [Compound 3l, 6-Methoxy-2,4-bis{4-[(2–(4-methylpiperazin-1-yl)ethyl)aminomethyl]phenyl}quinazoline] | 11.06 | 4.87 | 6.53 ± 0.6 µM | 3.61
≥ 10 µM | 1.71 ± 0.145 µM | 11.5 ± 1.05 µM | 10.4 ± 0.58 µM | COc1ccc2c(-c3ccc(CNCCCN4CCN(C)CC4)cc3)nc(-c3ccc(CNCCCN4CCN(C)CC4)cc3)nc2c1 [Compound 3q, 7-Methoxy-2,4-bis{4-[(3–(4-methylpiperazin-1-yl)propyl)aminomethyl]phenyl}quinazoline] | 0.74 | 0.11 | 1.27 ± 0.5 µM | 0.12
≥ 10 µM | 0.94 ± 0.089 µM | 4.84 ± 0.58 µM | 3.12 ± 0.23 µM | COc1ccc2nc(-c3ccc(CNCCCN4CCN(C)CC4)cc3)nc(-c3ccc(CNCCCN4CCN(C)CC4)cc3)c2c1 [Compound 3k, 6-Methoxy-2,4-bis{4-[(3–(4-methylpiperazin-1-yl)propyl)aminomethyl]phenyl}quinazoline] | 24.06 | 4.67 | 22.6 ± 1.1 µM | 7.25
≥ 10 µM | 1.28 ± 0.122 µM | 5.46 ± 0.44 µM | 5.77 ± 0.67 µM | CN1CCN(CCCNCc2ccc(-c3cc4ccccc4c(-c4ccc(CNCCCN5CCN(C)CC5)cc4)n3)cc2)CC1 [Compound 2d, 1,3-Bis{4-[(3–(4-methylpiperazin-1-yl)propyl)aminomethyl]phenyl}isoquinoline] | 11.60 | 2.72 | 14.8 ± 1.1 µM | 2.57
≥ 10 µM | 1.2 ± 0.296 µM | 1.69 ± 0.24 µM | 3.18 ± 0.36 µM | COc1ccc2c(-c3ccc(CNCCCN(C)C)cc3)cc(-c3ccc(CNCCCN(C)C)cc3)nc2c1 [Compound 1n, 7-Methoxy-2,4-bis{4-[(3-dimethylaminopropyl)aminomethyl]phenyl}quinoline] | 0.40 | 0.28 | 0.48 ± 0.1 µM | 0.15
≥ 10 µM | 2.05 ± 0.535 µM |  | 2.24 ± 0.435 µM | CN1CCN(CCCNCc2cccc(-c3nc(-c4cccc(CNCCCN5CCN(C)CC5)c4)c4ccccc4n3)c2)CC1 [Compound 3t, 2,4-Bis{3-[(3–(4-methylpiperazin-1-yl)propyl)aminomethyl]phenyl}quinazoline] | 14.42 |  | 29.6 ± 2.2 µM | 13.20
≥ 10 µM | 0.84 ± 0.033 µM |  | 4.08 ± 0.488 µM | CN(C)CCCCNCc1ccc(-c2cc(-c3ccc(CNCCCCN(C)C)cc3)c3ccccc3n2)cc1 [Compound 1a, 2,4-Bis{4-[(4-dimethylaminobutyl)aminomethyl]phenyl}quinoline] | 7.03 |  | 5.91 ± 1.5 µM | 1.45
